Results taken from patent publication US9707305B2, “Formulas for diagnosing and treating hormone-dependent cancers and cancers of the organs responsible for steroid hormone synthesis” (Commissariat à l'énergie atomique et aux énergies …, priority 2011, dated 2017).

Test: Biodistribution of the nano-emulsion of Example 1.1 (radioactivity and fluorescence per organ)
Assay type: in vivo
Protocol: In the following examples, the radioactivity was counted with the TRiCarb Counter (Ref: Packard, Liquid Scintillation Analyzers; Models 2200CA).
Fluobeam 700 (Fluoptics) is the apparatus with which the whole of the organs from the biodistribution were analyzed in fluorescence as well as the one with which the biodistribution kinetics of the nano-emulsions were established in vivo. This imaging system allows viewing of the fluorescence in spectral bands from 700 to 850 nm for a 650 nm excitation. The apparatus consists of an electric case containing the laser of class 3B, its power supply and an optical head containing the CCD camera.
The nano-emulsions of Example 1 were injected into FVB female and male mice. As a comparison, a mixture of three tracers ([3H]CHE, [14C]CO and DiD) (not formulated as a nano-emulsion) was injected in order to observe the distribution of the tracers in the absence of droplets being used as a distribution carrier.
Tables 6 to 14 provide the biodistribution results of each tracer ([3H]CHE, [14C]CO and DiD) expressed as a percentage of the dose injected per gram of tissue (or [3H]CHE and [14C]CO) or as fluorescence intensity (for DiD) depending on the organ of the mouse, 15 minutes (Table 6), 2 hours (Table 7), 4 hours (Table 8), 6 hours (Table 9), 16 hours (Table 10), 24 hours (Table 11), 72 hours (Table 12), 120 hours (Table 13) and 168 hours (Table 14), after injection into an FVB female mouse of the nano-emulsion of Example 1.1. (nano-emulsion according to the invention comprising the three tracers ([3H]CHE, [14C]CO and DiD).

[1] = 15 min after injection of nano-emulsion of Example 1.1, FVB female mouse
[2] = 2 h after injection of nano-emulsion of Example 1.1, FVB female mouse
[3] = 4 h after injection of nano-emulsion of Example 1.1, FVB female mouse
[4] = 16 h (Table 9 head) after injection of nano-emulsion of Example 1.1, FVB female mouse
[5] = 24 h (Table 10 head) after injection of nano-emulsion of Example 1.1, FVB female mouse
[6] = 48 h (Table 11 head) after injection of nano-emulsion of Example 1.1, FVB female mouse
[7] = 72 h after injection of nano-emulsion of Example 1.1, FVB female mouse
[8] = 120 h after injection of nano-emulsion of Example 1.1, FVB female mouse
[9] = 168 h after injection of nano-emulsion of Example 1.1, FVB female mouse

## CCCCCCCCCCCCCCCCCCN1/C(=C/C=C/C=C/C2=[N+](CCCCCCCCCCCCCCCCCC)c3ccccc3C2(C)C)C(C)(C)c2ccccc21.[O-][Cl+3]([O-])([O-])[O-] [DiD, l,r-dioctadécyl-3,3,3′,3′-tetramethylindodicarbocyanine (DiD) perchlorate]
[1]
  fluorescence intensity, Adrenal glands (MEAN): 457 photons per pixel, reduced to
  fluorescence intensity, Brain (MEAN): 145 photons per pixel, reduced to
  fluorescence intensity, Fat (MEAN): 147 photons per pixel, reduced to
  fluorescence intensity, Heart (MEAN): 451 photons per pixel, reduced to
  fluorescence intensity, Intestine (MEAN): 300 photons per pixel, reduced to
  fluorescence intensity, Kidney (MEAN): 228 photons per pixel, reduced to
  fluorescence intensity, Liver (MEAN): 979 photons per pixel, reduced to
  fluorescence intensity, Lung (MEAN): 618 photons per pixel, reduced to
  fluorescence intensity, Muscle (MEAN): 1 photons per pixel, reduced to
  fluorescence intensity, Ovary (MEAN): 484 photons per pixel, reduced to
  fluorescence intensity, Pancreas (MEAN): 216 photons per pixel, reduced to
  fluorescence intensity, Salivary glands (MEAN): 59 photons per pixel, reduced to
  fluorescence intensity, Spleen (MEAN): 727 photons per pixel, reduced to
  fluorescence intensity, Uterus (MEAN): 178 photons per pixel, reduced to
[2]
  fluorescence intensity, Adrenal glands (MEAN): 1050 photons per pixel, reduced to
  fluorescence intensity, Brain (MEAN): 250 photons per pixel, reduced to
  fluorescence intensity, Fat (MEAN): 247 photons per pixel, reduced to
  fluorescence intensity, Heart (MEAN): 389 photons per pixel, reduced to
  fluorescence intensity, Intestine (MEAN): 637 photons per pixel, reduced to
  fluorescence intensity, Kidneys (MEAN): 473 photons per pixel, reduced to
  fluorescence intensity, Liver (MEAN): 1421 photons per pixel, reduced to
  fluorescence intensity, Lung (MEAN): 727 photons per pixel, reduced to
  fluorescence intensity, Muscle (MEAN): 213 photons per pixel, reduced to
  fluorescence intensity, Ovary (MEAN): 1807 photons per pixel, reduced to
  fluorescence intensity, Pancreas (MEAN): 399 photons per pixel, reduced to
  fluorescence intensity, Salivary glands (MEAN): 288 photons per pixel, reduced to
  fluorescence intensity, Spleen (MEAN): 805 photons per pixel, reduced to
  fluorescence intensity, Uterus (MEAN): 814 photons per pixel, reduced to
[3]
  fluorescence intensity, Adrenal glands (MEAN): 1754 photons per pixel, reduced to
  fluorescence intensity, Brain (MEAN): 279 photons per pixel, reduced to
  fluorescence intensity, Fat (MEAN): 522 photons per pixel, reduced to
  fluorescence intensity, Heart (MEAN): 550 photons per pixel, reduced to
  fluorescence intensity, Intestine (MEAN): 974 photons per pixel, reduced to
  fluorescence intensity, Kidney (MEAN): 614 photons per pixel, reduced to
  fluorescence intensity, Liver (MEAN): 1845 photons per pixel, reduced to
  fluorescence intensity, Lungs (MEAN): 925 photons per pixel, reduced to
  fluorescence intensity, Muscle (MEAN): 236 photons per pixel, reduced to
  fluorescence intensity, Ovary (MEAN): 2781 photons per pixel, reduced to
  fluorescence intensity, Pancreas (MEAN): 527 photons per pixel, reduced to
  fluorescence intensity, Salivary glands (MEAN): 516 photons per pixel, reduced to
  fluorescence intensity, Spleen (MEAN): 955 photons per pixel, reduced to
  fluorescence intensity, Uterus (MEAN): 712 photons per pixel, reduced to
[4]
  fluorescence intensity, Adrenal glands (MEAN): 2355 photons per pixel, reduced to
  fluorescence intensity, Brain (MEAN): 259 photons per pixel, reduced to
  fluorescence intensity, Fat (MEAN): 532 photons per pixel, reduced to
  fluorescence intensity, Heart (MEAN): 444 photons per pixel, reduced to
  fluorescence intensity, Intestine (MEAN): 1139 photons per pixel, reduced to
  fluorescence intensity, Kidney (MEAN): 627 photons per pixel, reduced to
  fluorescence intensity, Liver (MEAN): 1661 photons per pixel, reduced to
  fluorescence intensity, Lungs (MEAN): 592 photons per pixel, reduced to
  fluorescence intensity, Muscle (MEAN): 289 photons per pixel, reduced to
  fluorescence intensity, Ovary (MEAN): 2915 photons per pixel, reduced to
  fluorescence intensity, Pancreas (MEAN): 564 photons per pixel, reduced to
  fluorescence intensity, Salivary glands (MEAN): 641 photons per pixel, reduced to
  fluorescence intensity, Spleen (MEAN): 978 photons per pixel, reduced to
  fluorescence intensity, Uterus (MEAN): 1759 photons per pixel, reduced to
[5]
  fluorescence intensity, Adrenal glands (MEAN): 2624 photons per pixel, reduced to
  fluorescence intensity, Brain (MEAN): 239 photons per pixel, reduced to
  fluorescence intensity, Fat (MEAN): 553 photons per pixel, reduced to
  fluorescence intensity, Heart (MEAN): 288 photons per pixel, reduced to
  fluorescence intensity, Intestine (MEAN): 777 photons per pixel, reduced to
  fluorescence intensity, Kidney (MEAN): 599 photons per pixel, reduced to
  fluorescence intensity, Liver (MEAN): 1675 photons per pixel, reduced to
  fluorescence intensity, Lung (MEAN): 667 photons per pixel, reduced to
  fluorescence intensity, Muscle (MEAN): 161 photons per pixel, reduced to
  fluorescence intensity, Ovary (MEAN): 3173 photons per pixel, reduced to
  fluorescence intensity, Pancreas (MEAN): 446 photons per pixel, reduced to
  fluorescence intensity, Salivary glands (MEAN): 411 photons per pixel, reduced to
  fluorescence intensity, Spleen (MEAN): 774 photons per pixel, reduced to
  fluorescence intensity, Uterus (MEAN): 971 photons per pixel, reduced to
[6]
  fluorescence intensity, Adrenal glands (MEAN): 1484 photons per pixel, reduced to
  fluorescence intensity, Brain (MEAN): 51 photons per pixel, reduced to
  fluorescence intensity, Fat (MEAN): 208 photons per pixel, reduced to
  fluorescence intensity, Heart (MEAN): 122 photons per pixel, reduced to
  fluorescence intensity, Intestine (MEAN): 481 photons per pixel, reduced to
  fluorescence intensity, Kidney (MEAN): 555 photons per pixel, reduced to
  fluorescence intensity, Liver (MEAN): 1868 photons per pixel, reduced to
  fluorescence intensity, Lungs (MEAN): 212 photons per pixel, reduced to
  fluorescence intensity, Muscle (MEAN): 32 photons per pixel, reduced to
  fluorescence intensity, Ovary (MEAN): 4018 photons per pixel, reduced to
  fluorescence intensity, Pancreas (MEAN): 202 photons per pixel, reduced to
  fluorescence intensity, Salivary glands (MEAN): 268 photons per pixel, reduced to
  fluorescence intensity, Spleen (MEAN): 342 photons per pixel, reduced to
  fluorescence intensity, Uterus (MEAN): 951 photons per pixel, reduced to
[7]
  fluorescence intensity, Adrenal glands (MEAN): 1135 photons per pixel, reduced to
  fluorescence intensity, Brain (MEAN): 43 photons per pixel, reduced to
  fluorescence intensity, Fat (MEAN): 159 photons per pixel, reduced to
  fluorescence intensity, Heart (MEAN): 113 photons per pixel, reduced to
  fluorescence intensity, Intestine (MEAN): 297 photons per pixel, reduced to
  fluorescence intensity, Kidney (MEAN): 365 photons per pixel, reduced to
  fluorescence intensity, Liver (MEAN): 1136 photons per pixel, reduced to
  fluorescence intensity, Lungs (MEAN): 120 photons per pixel, reduced to
  fluorescence intensity, Muscle (MEAN): 3 photons per pixel, reduced to
  fluorescence intensity, Ovary (MEAN): 2397 photons per pixel, reduced to
  fluorescence intensity, Pancreas (MEAN): 102 photons per pixel, reduced to
  fluorescence intensity, Salivary glands (MEAN): 237 photons per pixel, reduced to
  fluorescence intensity, Spleen (MEAN): 330 photons per pixel, reduced to
  fluorescence intensity, Uterus (MEAN): 514 photons per pixel, reduced to
[8]
  fluorescence intensity, Adrenal gland (MEAN): 1688 photons per pixel, reduced to
  fluorescence intensity, Brain (MEAN): 90 photons per pixel, reduced to
  fluorescence intensity, Fat (MEAN): 176 photons per pixel, reduced to
  fluorescence intensity, Heart (MEAN): 80 photons per pixel, reduced to
  fluorescence intensity, Intestine (MEAN): 279 photons per pixel, reduced to
  fluorescence intensity, Kidney (MEAN): 383 photons per pixel, reduced to
  fluorescence intensity, Liver (MEAN): 996 photons per pixel, reduced to
  fluorescence intensity, Lungs (MEAN): 53 photons per pixel, reduced to
  fluorescence intensity, Muscle (MEAN): 254 photons per pixel, reduced to
  fluorescence intensity, Ovary (MEAN): 2319 photons per pixel, reduced to
  fluorescence intensity, Pancreas (MEAN): 297 photons per pixel, reduced to
  fluorescence intensity, Salivary glands (MEAN): 120 photons per pixel, reduced to
  fluorescence intensity, Spleen (MEAN): 229 photons per pixel, reduced to
  fluorescence intensity, Uterus (MEAN): 563 photons per pixel, reduced to
[9]
  fluorescence intensity, Adrenal glands (MEAN): 660.62 photons per pixel, reduced to
  fluorescence intensity, Brain (MEAN): 40.28 photons per pixel, reduced to
  fluorescence intensity, Fat (MEAN): 164.55 photons per pixel, reduced to
  fluorescence intensity, Heart (MEAN): 117.29 photons per pixel, reduced to
  fluorescence intensity, Intestine (MEAN): 214.02 photons per pixel, reduced to
  fluorescence intensity, Kidneys (MEAN): 391.45 photons per pixel, reduced to
  fluorescence intensity, Liver (MEAN): 676.60 photons per pixel, reduced to
  fluorescence intensity, Lungs (MEAN): 1.35 photons per pixel, reduced to
  fluorescence intensity, Muscle (MEAN): 16.21 photons per pixel, reduced to
  fluorescence intensity, Ovary (MEAN): 1614.45 photons per pixel, reduced to
  fluorescence intensity, Pancreas (MEAN): 125.11 photons per pixel, reduced to
  fluorescence intensity, Salivary glands (MEAN): 216.84 photons per pixel, reduced to
  fluorescence intensity, Spleen (MEAN): 171.93 photons per pixel, reduced to
  fluorescence intensity, Uterus (MEAN): 697.92 photons per pixel, reduced to
